# In patent US20230338328A1, “KOJIC ACID DERIVATIVE AS SELECTIVE INHIBITOR OF MITOSIS IN COLORECTAL AND GLIOBLASTOMA CANCER CELLS” (UNIVERSITA' DEGLI STUDI DI CAGLIARI, priority 2020, published 2023):
# “Also recorded” adds a separate entry of the source.
# Legend:
# [1] = test system: Caco2 (colon adenocarcinoma) cells; assay: Mitosis block / morphology of treated cell cultures, CaCo2; conditions: for morphological changes characteristic of block in mitosis (M phase arrest): CaCo2, 24 hours of culture, FIG. 1: L1 0.74 mM, Colcemid 5.41 mM; for antiproliferative activity (through the inhibition of mitosis): CaCo2 tumor cells
# Description: (§1) The commercial embryonic cell line of the human kidney 293T (Banca Biologica and Cell Factory—IRCCS AOU San Martino—IST Genova, catalog code ICLC HTL03003), that of murine macrophages J774 and RAW (ICLC ATL98011 and ATL02001), that of Glioblastoma del human brain T98G (ATCC® CRL-1690™) and that of human epithelial adenocarcinoma Caco-2 (ICL HTL97023), were provided by the National Institute for Research on Cancer c/o CBA (ICLC, Genoa). A minimal essential cell culture medium, MEM (EBSS), with 10% fetal bovine serum (FBS), 100 units per mL penicillin, […] streptomycin, 2 mM glutamine and 1% not essential amino acids was used. To reach the experimental conditions, the confluent cells were isolated using trypsin/EDTA. The cells of the different cell lines (2-3×10^4 cells per cm^2) were seeded in 35 mm cell discs and then incubated at 37° C. in 5% CO2. After 24 hours of growth in complete culture medium, the cells were cultured according to the different experimental conditions foreseen by the project.
# [2] = test system: embryonic kidney cells (293T cells); assay: Mitosis block / morphology of treated cell cultures, 293T; type: cell-based, human; conditions: for morphological changes characteristic of block in mitosis (M phase arrest): 293T normal cells, FIG. 1: L1 0.74 mM, Colcemid 5.41 mM
# Description: as §1
# [3] = test system: T98G (human glioblastoma) cells; assay: Mitosis block / morphology of treated cell cultures, T98G; type: cell-based; conditions: for morphological changes characteristic of block in mitosis (M phase arrest): T98G, 24 hours of culture, FIG. 1: L1 0.74 mM, Colcemid 5.41 mM; for antiproliferative activity (through the inhibition of mitosis): T98G tumor cells
# Description: as §1
# [4] = test system: RAW macrophages; assay: Mitosis block / morphology of treated cell cultures, RAW; type: cell-based, murine; conditions: RAW normal cells; FIG. 1: L1 0.74 mM, Colcemid 5.41 mM
# Description: as §1
# [5] = test system: CaCo2 cells
# Experimental: A possible cytotoxic effect (ID50) of the L1 molecule was evaluated in CaCo2 cells by viable staining with trypan blue under different experimental conditions. Cell number (FIG. 3) and viability (FIG. 4) were assessed using the LunaFL cell counter (www.logosbio.com) or by direct observation under the light microscope. Briefly, the cell samples mixed and diluted 1:1 with a 0.2% Trypan Blue solution were counted, after 1-3 minutes, in the counting chamber slide present in the analyzer of the Luna automatic system. […] To obtain an accurate measurement of cell viability, the cell count was repeated at least three times in at least three experiments under the same experimental conditions. The observation under the optical microscope (FIG. 5) was made by adding the Trypan Blue solution to the cells to be observed for a few minutes. The percentage of live cells (trypan blue negative) compared to dead ones (trypan blue positive) in each experimental culture condition was then calculated.
# [6] = test system: BAX, BCL2, OH-1, PRDX gene expression in CaCo2 cells; conditions: 24 hours, L1 0.74 mM (FIG. 6)
# Experimental: (§2) Coding for a protein that may play a role in the control of cell proliferation and in tumor development and progression.
# (§3) The cells, after treatment, were immediately frozen and stored at −80° C. until RNA extraction. The RNA was extracted with the NorDiag ARROW RNA Kit using the company's automated tool. Actin was used as a reference gene. Real-time reverse transcriptase PCR was performed using the Roche Light Cycler System and the SYBR Green I Amplification Kit (Roche Diagnostics). The primers used for the beta actin control gene are as follows: b-actF=5′-[…]-3′, b-actR=5′-[…]-3′, e (Gen-Bank n. NM_001101). While the following oligo nucleotides were used for the genes under consideration:
# (§4) The final reaction volume of 20 μl contained: a final concentration of 3 mM MgCl2, […] of each primer and 2 μl of RNA extract. The real time reaction program includes: an initial reverse transcription at 55° C. for 10 minutes, a denaturation cycle at 95° C. for 30 seconds followed by 35 cycles at 95° for 5 seconds, 53° C. for 10 seconds and 72° C. for 12 seconds, the fluorescence reading was performed in the 72° C. phase
# (§5) The relative gene expression was analyzed using the 2-AACT method [KJ Livak and TD Schmittgen, Analysis of relative gene expression data by Quantitative real-time PCR and 2-AACT method, methods, 2001, 25, 402-408]. Three distinct experimental replicates were performed for each analysis and the quantitative data were expressed as mean. The experiment was repeated if the dispersion of the values of the threshold cycles, compared to the mean, was too high. A standard deviation for each replicate equal to ±1 cut-off cycle was accepted.
# [7] = test system: BAX, BCL2, OH-1, PRDX gene expression in 293T cells; conditions: 24 hours, L1 0.74 mM (FIG. 6)
# Experimental: as §2, §3, §4, §5
# [8] = test system: macrophages (J774 cells)
# Description: as §1
# [9] = test system: Caco-2 human epithelial adenocarcinoma cells
# Experimental: Treated and untreated control samples of Caco-2 human epithelial adenocarcinoma cells were fixed for 2 hours in 1% paraformaldehyde (para) and 1.25% glutaraldehyde solution in 0.1 M, pH 7.4 sodium cacodylate buffer. After rinsing in the same buffer, the samples were post-fixed in 1% osmium tetroxide for 1 hour and stained in 0.25% uranyl acetate overnight at 4° C.
# The cell cultures were dehydrated in increasing scale of ethanol and xylene, subsequently, to proceed with the embedding in Embed 812 resin, the samples were transferred in inclusion flat molds in an oven at 60° C. for the 24 hours necessary for the polymerization of the resin. From the resulting blocks, 1 μm thick sections were obtained and then stained with toluidine blue for preliminary analysis by light microscopy. Finally, thin sections of 60-90 nm (ultramicrotome 8800 LKB), contrasted with […] and bismuth subnitrate, were observed and photographed with a transmission electron microscope (model JEOL 1400 plus, Tokyo, Japan) operating at 80 kV.
# [10] = Caco2, treatment continued for up to 72 hours
smiles,measurement,setting,value
"CN[C@H]1CCc2cc(OC)c(OC)c(OC)c2-c2ccc(OC)c(=O)cc21 [Colcemid, desacetylmethylcolchicine, reference compound]",morphological changes characteristic of block in mitosis (M phase arrest),[1],all cell lines respond
same,morphological changes characteristic of block in mitosis (M phase arrest),[1]; listed as colcemide,all cell lines studied showed the morphological changes characteristic of blocked cells in mitosis
same,morphological changes characteristic of block in mitosis (M phase arrest),[2],all cell lines respond
same,morphological changes characteristic of block in mitosis (M phase arrest),[3],all cell lines respond
same,morphological changes characteristic of block in mitosis (M phase arrest),[3]; listed as colcemide,all cell lines studied showed the morphological changes characteristic of blocked cells in mitosis
same,morphological changes characteristic of block in mitosis (M phase arrest),[4],all cell lines respond
"O=c1cc(CNCCNCc2cc(=O)c(O)co2)occ1O [L1, 2,2′-ethane-1,2-diylbis (iminomethanediyl)This(5-hydroxy-4H-pyran-4-one)]","viability (Trypan Blue, LunaFL)",[5]; L1 0.74 mM (FIG. 4),comparable to that of the respective control
same,number of cells after repeated treatments,[5]; repeated treatments with L1,further reduction in the number of cells
same,number of cells compared to those not treated (LunaFL count),"[5]; treated for 24 hours, L1 0.74 mM (FIG. 3)",clear reduction in the number of CaCo2 cells
same,morphological changes characteristic of block in mitosis (M phase arrest),[1],showed morphological changes characteristic of mitotic-blocked cells; also recorded: arrest in M phase similar to that induced by Colcemid
same,antiproliferative activity (through the inhibition of mitosis),[1],showed antiproliferative activity
same,concentration at which all the cells have a modified morphology,[1]; Caco2,2.22 mM
same,treatment time after which half of the Caco2 cells were blocked in mitosis,[1]; Caco2,4.5 h
same,treatment time after which the block of all treated cells was achieved,[1]; Caco2,24 h
same,minimum concentration able to induce evident morphological changes,"[1]; Caco2, after 24 hours of treatment",0.069 mM
same,reduction in the number of cells versus control sample (on average),"[1]; Caco2, control = same cell line cultured without L1",4 times lower
same,cell fate on continued treatment,[1]; [10],begin to die from apoptosis
same,reversibility of mitosis inhibition,[1]; [10],irreversible
same,reversibility of mitosis inhibition,"[1]; Caco2, treatment stopped after 24 hours, medium replaced",reversible
same,morphological changes characteristic of block in mitosis (M phase arrest),[2],apparently normal
same,effect in non-tumor cell line,[2]; embryonic kidney cells (293 cells),no effect
same,BAX gene expression (mRNA),[6],significantly reduces the expression
same,BCL2 gene expression (mRNA),[6],significantly reduces the expression
same,OH-1 gene expression (mRNA),[6],significantly reduces the expression
same,PRDX gene expression (mRNA),[6],significantly reduces the expression
same,BAX gene expression (mRNA),[7],increased expression
same,BCL2 gene expression (mRNA),[7],increased expression
same,OH-1 gene expression (mRNA),[7],increased expression
same,PRDX gene expression (mRNA),[7],completely inhibiting the expression
same,antiproliferative activity (through the inhibition of mitosis),[3],showed antiproliferative activity
same,morphological changes characteristic of block in mitosis (M phase arrest),[3],showed morphological changes characteristic of mitotic-blocked cells; also recorded: arrest in M phase similar to that induced by Colcemid
same,effect in non-tumor cell line,[8],no effect
same,morphological changes characteristic of block in mitosis (M phase arrest),[4],apparently normal
same,effect on cell division by ultrastructural analysis (SEM and TEM),"[9]; Caco2, L1 0.74 mM (FIG. 2)",acts specifically on the cell division (mitosis) process
same,nuclear fragmentation (microscopy),"[9]; Caco-2, L1 0.74 mM (FIG. 2A)","occasionally, cells showing fragmentation of their nuclei have been observed"
same,cellular architecture during the interphase (TEM),"[9]; Caco-2, L1 0.74 mM (FIG. 2B)",does not appear to affect the cellular architecture of most cells
"O=c1cc(CNCCCNCc2cc(=O)c(O)co2)occ1O [L2, 2,2′-[propane-1,3-diylbis (iminomethanediyl)]bis(5-hydroxy-4H-pyran-4-one)]",antiproliferative activity (through the inhibition of mitosis),[1],"not those (L2, L3 and L4) showed antiproliferative activity"
same,antiproliferative activity (through the inhibition of mitosis),[3],"not those (L2, L3 and L4) showed antiproliferative activity"
"O=c1cc(CNCCCCNCc2cc(=O)c(O)co2)occ1O [L3, 2,2′-[butane-1,4-diylbis (iminomethanediyl)]bis(5-hydroxy-4H-pyran-4-one)]",antiproliferative activity (through the inhibition of mitosis),[1],"not those (L2, L3 and L4) showed antiproliferative activity"
same,antiproliferative activity (through the inhibition of mitosis),[3],"not those (L2, L3 and L4) showed antiproliferative activity"
"O=c1cc(CNCCN(CCNCc2cc(=O)c(O)co2)CCNCc2cc(=O)c(O)co2)occ1O [L4, 6,6′,6″-(((nitrilotris(ethane-2,1-diyl))tris(azanediyl))tris(methylene))tri s(3-hydroxy-4H-pyran-4-one)]",antiproliferative activity (through the inhibition of mitosis),[1],"not those (L2, L3 and L4) showed antiproliferative activity"
same,antiproliferative activity (through the inhibition of mitosis),[3],"not those (L2, L3 and L4) showed antiproliferative activity"
